In patent publication US5849751A, “Amides and sulphonamides of benzylamines having heterocyclic substituents” (Bayer Aktiengesellschaft, priority 1995, dated 1998):

Tested on: release of apoB-100-associated lipoproteins from liver cells (HepG2)
Assay: Inhibition of the release of apoB-100-associated lipoproteins (HepG2 cells, immunoassay)
Type: cell-based
Conditions: Homo sapiens; HepG2 culture supernatant, anti-LDL immunoassay, light absorption at 450 nm vs solvent control
Description: 1. Inhibition of the release of apoB-100-associated lipoproteins
The test for detection of the inhibition of the release of apoB-100-associated lipoproteins from liver cells was carried out in vitro with cultured liver cells, preferably with cells of the human line HepG2. These cells are cultured under standard conditions in a medium for the culture of eukaryotic cells, preferably in RPMI 1640 with 10% foetal calf serum. HepG2 cells synthesize and secrete into the culture supernatant apoB-100-associated lipoprotein particles, which in principle are similar in structure to the VLDL and LDL particles to be found in plasma.
These particles can be detected with an immunoassay for human LDL. This immunoassay is carried out with antibodies which had been induced in the rabbit against human LDL under standard conditions. The anti-LDL antibodies (rab-anti-LDL- ab) were purified by affinity chromatography on an immunosorbent with human LDL. These purified rab-anti-LDL-ab are adsorbed onto the surface of a plastic. This adsorption is expediently carried out onto the plastic surface of microtitre plates with 96 wells, preferably on MaxiSorp plates. If apoB-100-associated particles are present in the supernatant of Hep-G2 cells, these can bind to the insolubilized rab-anti-LDL-ab, and an immune complex bonded to the plastic surface is formed. Non-bound proteins are removed by washing. The immune complex on the plastic surface is detected with monoclonal antibodies which have been induced against human LDL and purified under standard conditions. These antibodies were conjugated with the enzyme peroxidase. Peroxidase converts the colourless substrate TMB into a coloured product in the presence of H2 O2. After acidification of the reaction mixture with H2 SO4, the specific adsorption of light at 450 nm is determined, this being a measure of the amount of apoB-100-associated particles which have been secreted into the culture supernatant by the HepG2 cells.
The IC50 value indicates the concentration of substance at which the adsorption of light is inhibited by 50% compared with the control (solvent control without substance).

Row | Compound | IC50 [nM]
1 | Cc1cc(C)c2c3ccccc3n(Cc3ccc(C(NS(=O)(=O)Cc4ccccc4)C4CCCC4)cc3)c2n1 (stereo not drawn) [Example 3] | 460
2 | COc1ccc(CC(=O)NC(c2ccc(Cn3c4ccccc4c4c(C)cc(C)nc43)cc2)C2CCCC2)cc1 (stereo not drawn) [Example 5] | 38
3 | Cc1cc(C)c2c3ccccc3n(Cc3ccc(C(NC(=O)C(=NO)c4ccccc4)C4CCCC4)cc3)c2n1 (racemic) [Example 24, 9-{4-[1-(R,S)-1-(2-(E,Z)-2-hydroxyimino-2-phenyl-acetyl)amino-1-cyclopentyl-methyl]phenyl-methyl}-2,4-dimethyl-α-carboline] | 300
4 | Cc1cc(C)c2c3ccccc3n(Cc3ccc(C(NC(=O)C(O)c4ccccc4)C4CCCC4)cc3)c2n1 (racemic) [Example 18, 9-{4-[1-(R,S)-1-(2-(R,S)-2-Phenyl-2-hydroxy-acetyl)amino-1-cyclopentyl-methyl]phenyl-methyl}-2,4-dimethyl-α-carboline] | 39
5 | Cc1cc(C)c2c3ccccc3n(Cc3ccc(C(N)C4CCCC4)cc3)c2n1 (racemic) [Example 1, 9-{4-[1-(R,S1-Amino-1-cyclopentyl-methyl]phenyl-methyl}-2,4-dimethyl-(α-carboline] | > 2000
6 | Cc1cc(C)c2c3ccccc3n(Cc3ccc(C(NC(=O)Cc4ccccc4)C4CCCC4)cc3)c2n1 (stereo not drawn) [Example 4] | 34
